Reference: ChEMBL document CHEMBL1130442, “Tetrazole is an effective Sn-3 phosphate replacement in substrate analog inhibitors of 14 kDa phospholipase A2” (Bioorg Med Chem Lett, 1997)

Columns and labels:
[1] = tested on: Monocyte; assay: Compound was tested for inhibition of LTC4 release in the human monocytic cell line; NI means no inhibition observed; assay type: functional, cell-based
[2] = molecular target: T1, Polyunsaturated fatty acid 5-lipoxygenase (Homo sapiens) (UniProt P09917); assay: Compound was tested for inhibition of 5-lipoxygenase at 50 uM; NI means no inhibition was observed
T1 sequence (whole entry): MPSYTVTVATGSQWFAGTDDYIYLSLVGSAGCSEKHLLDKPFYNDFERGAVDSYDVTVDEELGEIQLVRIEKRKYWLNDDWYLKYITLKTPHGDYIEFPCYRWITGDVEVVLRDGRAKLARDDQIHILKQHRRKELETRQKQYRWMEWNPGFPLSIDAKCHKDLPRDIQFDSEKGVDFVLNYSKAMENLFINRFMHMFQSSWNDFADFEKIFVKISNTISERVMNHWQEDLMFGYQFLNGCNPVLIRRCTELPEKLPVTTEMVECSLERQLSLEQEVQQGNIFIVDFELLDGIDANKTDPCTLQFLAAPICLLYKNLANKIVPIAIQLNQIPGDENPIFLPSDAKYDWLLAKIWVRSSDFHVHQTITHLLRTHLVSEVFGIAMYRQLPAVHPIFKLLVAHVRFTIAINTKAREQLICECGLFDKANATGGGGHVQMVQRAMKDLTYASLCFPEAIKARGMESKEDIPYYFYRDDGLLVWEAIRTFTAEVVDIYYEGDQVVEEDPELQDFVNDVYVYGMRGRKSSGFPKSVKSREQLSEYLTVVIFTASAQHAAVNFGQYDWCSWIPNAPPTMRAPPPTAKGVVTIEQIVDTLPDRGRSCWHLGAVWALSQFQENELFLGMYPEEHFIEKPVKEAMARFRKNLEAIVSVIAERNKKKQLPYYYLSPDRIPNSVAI

[3] = tested on: Monocyte; assay: Compound was tested for inhibition of LTC4 release in the human monocytic cell line at 30 uM; assay type: functional

Structure (SMILES): CCCCCCCCCCCCC(=O)NC(COCCC)COP(=O)(O)OCCO (centres undefined)
- inhibition [1]: No inhibition

Structure (SMILES): CCCCCCCCCCCCCCCCCCOCC(CCc1nnn[nH]1)NC(C)=O (centres undefined)
- inhibition [2]: No inhibition
- inhibition at 30 µM [3]: 75%

Structure (SMILES): CCCCCCCCOC[C@H](COP(=O)(O)OCCN)OP(=O)(O)CCCCCCC
- inhibition [1]: No inhibition
